The results in this text go back to US20140000886A1, “PETROLEUM RECOVERY PROCESS AND SYSTEM” (Shell Oil Company, priority 2012, published 2014).

A short description of this series: Oil recovery from formation core by brine displacement followed by DMS displacement. The settings on record: after waterflooding with a brine solution. The protocol:
Incremental recovery of oil from a formation core using an oil recovery formulation consisting of dimethyl sulfide following oil recovery from the core by water-flooding was measured to evaluate the effectiveness of DMS as a tertiary oil recovery agent.
Two 5.02 cm long Berea sandstone cores with a core diameter of 3.78 cm and a permeability between 925 and 1325 mD were saturated with a brine having a composition as set forth in Table 7.
After saturation of the cores with brine, the brine was displaced by a Middle Eastern Asphaltic crude oil having the characteristics as set forth above in Table 3 to saturate the cores with oil.
Oil was recovered from each oil saturated core by the addition of brine to the core under pressure and by subsequent addition of DMS to the core under pressure. Each core was treated as follows to determine the amount of oil recovered from the core by addition of brine followed by addition of DMS. Oil was initially displaced from the core by addition of brine to the core under pressure. A confining pressure of 1 MPa was applied to the core during addition of the brine, and the flow rate of brine to the core was set at 0.05 ml/min. The core was maintained at a temperature of 50° C. during displacement of oil from the core with brine. […]

Take `CSC` [Dimethyl Sulfide, dimethyl sulfide]: the “Oil recovered, of the oil remaining in the core after the waterflood” value is on record as “approximately 60%”.
